Activity calls are given as the source filed them. The calls are words filed in the database; no cut-off is given here.
Columns and labels:
[1] = Induction of lysosome alkalization in human HeLa cells assessed as pixel intensity ratio of red fluorescence to green fluorescence at 5 uM incubated for 4 hrs by acridine orange staining based confocal microscopic analysis relative to control; assay type: subcellular
[2] = Induction of lysosome alkalization in human HeLa cells incubated for 4 hrs by acridine orange staining based confocal microscopic analysis; assay type: subcellular; settings: dose 1.5-5 µM
[3] = Induction of lysosome alkalization in human HeLa cells assessed as increase in lysosomal pH incubated for 4 hrs by LysoSensor Green […] staining based confocal microscopic analysis; assay type: subcellular; settings: dose 1.5-5 µM
[4] = Aniono-phoric activity in egg-yolk L-aphosphatidylcholine vesicle assessed as increase in efflux of chloride ion at 0.5 mol% by electrode technique
[5] = test system: HeLa; assay: Induction of lysosomal alkalization in human HeLa cells assessed as reduction in Cathepsin B activity at 5 uM using MR-(RR2) as substrate preincubated for 5 hrs followed by substrate addition and measured after 1 hr by confocal microscopic analysis; assay type: functional, cell-based; settings: time 6.0 hrs
[6] = Aniono-phoric activity in egg-yolk L-aphosphatidylcholine vesicle assessed as increase in efflux of chloride ion by pH discharge experiment
[7] = Drug localization in lysosome of human HeLa cells at 20 uM incubated for 6 hrs by confocal microscopic analysis; assay type: ADME, subcellular

Row | Structure (SMILES) | Ratio [1] | Activity [2] | Activity [3] | Activity [4] | Activity [5] | EC50 [6] | Drug uptake [7]
1 | Cc1cc(=O)oc2cc(Nc3c(Nc4ccc(N5CCOCC5)cc4)c(=O)c3=O)ccc12 | 0.69 | Dose-dependent effect | Dose-dependent effect | inactive | Active | Nd(Insoluble) | 
2 | Cc1cc(=O)oc2cc(Nc3c(Nc4ccccc4)c(=O)c3=O)ccc12 |  |  |  | inactive |  | Nd(Insoluble) | Not Active
3 | O=c1cc(CN2CCOCC2)c2ccc(Nc3c(Nc4cc(C(F)(F)F)cc(C(F)(F)F)c4)c(=O)c3=O)cc2o1 | 0.08 | Dose-dependent effect | Dose-dependent effect | Active | Active | 9.09 mol% | Active
4 | O=c1cc(CN2CCOCC2)c2ccc(Nc3c(Nc4ccc(C(F)(F)F)cc4)c(=O)c3=O)cc2o1 | 0.52 | Dose-dependent effect | Dose-dependent effect | inactive | Active | 0.11 mol% | Active

Source: ChEMBL document CHEMBL4673236, “Synthesis and biological effect of lysosome-targeting fluorescent anion transporters with enhanced anionophoric activity” (Bioorg Med Chem Lett, 2020)
